Where two headings read alike, the source gives them in different places.

By IC50 is commonly meant the midpoint of a concentration-inhibition curve.

In assay [1] the target is T1, PI3K (p110α/p85α) (Homo sapiens, UniProt P42336).
T1 construct: purchased Carna Biosciences 07CBS-0402A
Put plainly: PI3K activity assay (ADP Hunter Plus). The format is biochemical. On the procedure: The kinase activity was measured by using the commercial ADP Hunter™ Plus assay available from DiscoveRx (#33-016), which is a homogeneous assay to measure the accumulation of ADP, a universal product of kinase activity. […] Reaction was carried out for 1 hour at 25° C. Reagent A and B were sequentially added to the wells and plates were incubated for 30 min at 37° C. Fluorescence counts were read in a Victor instrument (Perkin Elmer) with the recommended settings (544 and 580 nm as excitation and emission wavelengths, respectively). Values were normalized against the control activity included for each enzyme (i.e., 100% PI3 kinase activity, without compound). These values were plotted against the inhibitor concentration and were fit to a sigmoid dose-response curve by using the Graphad software.

Assay [2] addresses T2, mTOR (Homo sapiens, UniProt P42345).
T2 construct: purchased Invitrogen PV4754
Nature of the assay: mTOR assay (LanthaScreen kinase activity assay). It is filed as biochemical. The protocol: The enzymatic mTOR activity was measured using a LanthaScreen™ kinase activity assay (Invitrogen). The enzyme was purchased from Invitrogen (PV4754), as well as the GFP-labeled substrate (4EBP1-GFP; PV4759) and the Tb-anti-p4EBP1(pThr46) antibody (PV4757). The assay was performed in 50 mM HEPES buffer, pH 7.5, containing 1.5 mM MnCl2, 10 mM MgCl2, 1 mM EGTA, 2.5 mM DTT and 0.01% Tween-20. The concentration of the assay components were the following: 0.24 nM mTOR kinase, 400 nM 4EBP1-GFP, […] and serial dilutions of the compound (inhibitor) to be evaluated. After 1 h incubation at room temperature, 20 mM EDTA was used to stop the reaction and terbium-labeled antibody (4 nM) added to detect phosphorylated product. The antibody associates with the phosphorylated product resulting in an increased TR-FRET value. The TR-FRET value (a dimensionless number) was calculated as the ratio of the acceptor signal (GFP, emission at 520 nm) to the donor signal (terbium, emission at 495 nm). Values were plotted against the inhibitor concentration and fitted to a sigmoid dose-response curve using GraphPad software.
On the technique in general: In TR-FRET formats the signal depends on donor and acceptor labels being close together.

In assay [3] the target is T3, PIM-1 (Homo sapiens, UniProt P11309).
T3 construct: histidine tag (C); made in house
Put plainly: PIM-1 biochemical assay (ADP Hunter). Particulars: PIM1. From the text: The biochemical assay to measure PIM-1 activity relies on the ADP Hunter assay kit (DiscoveRx Corp., Cat. #90-0077), that determines the amount of ADP as direct product of the kinase enzyme activity.
The enzyme has been expressed and purified in-house as a recombinant human protein with a C-terminal histidine tag. The protein is active and stable.
Assay conditions were as indicated by the kit manufacturers with the following adaptations for the kinase activity step: • Kinase assay buffer and assay volume stay as recommended (15 mM HEPES, pH 7.4, 20 mM NaCl, 1 mM EGTA, 0.02% Tween 20, 10 mM MgCl2 and 0.1 mg/ml bovine γ-globulins/75 μl assay volume) • Incubation time and temperature: 60 min at 30° C. • PIM-1 concentration: 50 pg/μl • ATP concentration: 100 μM • PIM-1 substrate peptide: PIMtide ([…]) (SEQIDNO. 1) • Peptide concentration: 60 μM • Positive control for kinase activity inhibition: 1-10 μM Staurosporine • DMSO concentration have to stay below 2% during the kinase reaction
Assays were performed in either 96 or 384-well plates. The final outcome of the coupled reactions provided by the kit is the release of the fluorescent product Resorufin and has been measured with a multilabel HTS counter VICTOR V (PerkinElmer) using an excitation filter at 544 nm and an emission filter at 580 nm.

Setting [4] is: read-out: PI3K alpha activity, IC50 (semi-quantitative class).
Where [5] appears, read: read-out: PI3K alpha actual IC50 (in parentheses).
[6] abbreviates: read-out: mTOR activity, IC50 (semi-quantitative class).
The mark [7] stands for this setting: read-out: mTOR actual IC50 (in parentheses).
The mark [8] stands for this setting: read-out: PIM-1 activity, IC50 (semi-quantitative class).

T1 sequence (P42336 whole entry): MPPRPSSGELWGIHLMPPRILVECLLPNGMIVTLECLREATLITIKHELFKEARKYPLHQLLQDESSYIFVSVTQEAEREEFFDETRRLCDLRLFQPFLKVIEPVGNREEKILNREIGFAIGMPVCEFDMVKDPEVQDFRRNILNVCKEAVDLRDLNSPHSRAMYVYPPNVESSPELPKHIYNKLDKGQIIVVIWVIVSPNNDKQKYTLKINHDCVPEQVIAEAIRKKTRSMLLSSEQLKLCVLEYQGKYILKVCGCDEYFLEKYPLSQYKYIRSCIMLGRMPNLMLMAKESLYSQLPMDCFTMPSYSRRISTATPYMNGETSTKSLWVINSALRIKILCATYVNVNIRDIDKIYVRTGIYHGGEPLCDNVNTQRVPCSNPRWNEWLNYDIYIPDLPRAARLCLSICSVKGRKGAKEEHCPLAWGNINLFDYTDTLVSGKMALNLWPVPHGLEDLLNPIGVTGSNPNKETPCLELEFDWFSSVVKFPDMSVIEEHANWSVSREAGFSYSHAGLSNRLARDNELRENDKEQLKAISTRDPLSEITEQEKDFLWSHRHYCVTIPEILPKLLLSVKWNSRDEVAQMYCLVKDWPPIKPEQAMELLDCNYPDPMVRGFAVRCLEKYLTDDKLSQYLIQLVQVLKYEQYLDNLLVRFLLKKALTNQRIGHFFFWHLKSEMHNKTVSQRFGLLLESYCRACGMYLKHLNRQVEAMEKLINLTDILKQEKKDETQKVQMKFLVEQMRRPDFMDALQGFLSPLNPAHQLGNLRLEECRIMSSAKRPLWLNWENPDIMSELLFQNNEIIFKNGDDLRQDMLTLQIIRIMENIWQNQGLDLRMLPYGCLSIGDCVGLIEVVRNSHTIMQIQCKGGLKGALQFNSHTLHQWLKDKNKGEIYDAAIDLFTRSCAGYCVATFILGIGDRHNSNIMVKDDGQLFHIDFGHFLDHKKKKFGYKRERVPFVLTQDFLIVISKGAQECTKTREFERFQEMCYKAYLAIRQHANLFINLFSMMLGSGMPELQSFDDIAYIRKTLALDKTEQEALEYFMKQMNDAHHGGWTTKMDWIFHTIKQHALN
T1 sequence (P27986 whole entry partner): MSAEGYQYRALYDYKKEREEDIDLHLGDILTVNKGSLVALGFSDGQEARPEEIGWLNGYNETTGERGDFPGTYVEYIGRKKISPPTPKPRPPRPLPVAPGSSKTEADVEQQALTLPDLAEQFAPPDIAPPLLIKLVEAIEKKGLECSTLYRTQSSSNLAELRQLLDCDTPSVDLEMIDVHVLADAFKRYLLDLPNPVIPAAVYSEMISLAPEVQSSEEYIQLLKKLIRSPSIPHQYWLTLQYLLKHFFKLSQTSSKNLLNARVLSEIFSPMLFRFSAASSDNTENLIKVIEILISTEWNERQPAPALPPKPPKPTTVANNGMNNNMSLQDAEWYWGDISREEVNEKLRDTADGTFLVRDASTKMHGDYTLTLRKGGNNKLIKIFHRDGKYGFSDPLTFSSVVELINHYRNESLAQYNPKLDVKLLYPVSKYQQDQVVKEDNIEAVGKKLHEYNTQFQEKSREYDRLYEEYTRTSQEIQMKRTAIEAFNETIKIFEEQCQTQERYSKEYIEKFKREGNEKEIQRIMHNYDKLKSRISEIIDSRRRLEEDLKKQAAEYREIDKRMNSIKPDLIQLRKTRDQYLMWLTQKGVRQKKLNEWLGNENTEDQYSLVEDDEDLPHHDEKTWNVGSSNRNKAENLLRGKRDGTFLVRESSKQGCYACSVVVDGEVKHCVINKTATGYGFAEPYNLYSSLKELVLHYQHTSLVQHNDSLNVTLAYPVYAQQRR
T2 sequence (P42345 1360-2549 limits assumed): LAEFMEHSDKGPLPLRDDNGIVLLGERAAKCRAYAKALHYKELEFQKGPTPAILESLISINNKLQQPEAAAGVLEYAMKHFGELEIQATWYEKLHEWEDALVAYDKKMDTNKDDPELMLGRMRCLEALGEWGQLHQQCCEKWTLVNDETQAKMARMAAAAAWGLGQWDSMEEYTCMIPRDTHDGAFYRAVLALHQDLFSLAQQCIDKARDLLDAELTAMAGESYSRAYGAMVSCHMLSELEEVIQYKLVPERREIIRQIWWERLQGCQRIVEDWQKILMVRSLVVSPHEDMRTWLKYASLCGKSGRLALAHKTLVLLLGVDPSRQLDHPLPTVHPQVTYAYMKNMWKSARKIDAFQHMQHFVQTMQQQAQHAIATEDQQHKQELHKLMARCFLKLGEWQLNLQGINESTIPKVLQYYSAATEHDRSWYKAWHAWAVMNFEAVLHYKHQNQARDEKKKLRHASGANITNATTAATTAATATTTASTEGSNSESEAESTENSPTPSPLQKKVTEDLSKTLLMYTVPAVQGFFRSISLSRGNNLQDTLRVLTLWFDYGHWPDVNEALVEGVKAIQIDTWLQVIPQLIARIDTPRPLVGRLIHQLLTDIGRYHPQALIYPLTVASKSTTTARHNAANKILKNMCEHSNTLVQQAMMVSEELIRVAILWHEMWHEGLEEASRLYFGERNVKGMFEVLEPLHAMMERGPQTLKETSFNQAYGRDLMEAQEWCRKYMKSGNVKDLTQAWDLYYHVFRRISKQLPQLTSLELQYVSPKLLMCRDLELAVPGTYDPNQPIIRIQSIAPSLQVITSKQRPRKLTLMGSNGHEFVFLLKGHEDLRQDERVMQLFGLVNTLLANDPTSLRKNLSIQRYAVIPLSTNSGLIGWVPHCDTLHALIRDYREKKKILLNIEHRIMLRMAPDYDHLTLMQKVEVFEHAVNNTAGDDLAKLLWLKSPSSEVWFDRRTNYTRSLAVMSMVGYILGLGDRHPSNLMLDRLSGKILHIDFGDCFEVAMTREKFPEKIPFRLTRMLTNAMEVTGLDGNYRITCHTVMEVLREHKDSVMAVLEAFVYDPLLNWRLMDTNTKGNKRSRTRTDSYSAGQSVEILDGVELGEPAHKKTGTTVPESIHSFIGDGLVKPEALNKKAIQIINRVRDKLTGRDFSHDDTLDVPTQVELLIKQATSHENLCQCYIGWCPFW
T3 sequence (P11309 whole entry): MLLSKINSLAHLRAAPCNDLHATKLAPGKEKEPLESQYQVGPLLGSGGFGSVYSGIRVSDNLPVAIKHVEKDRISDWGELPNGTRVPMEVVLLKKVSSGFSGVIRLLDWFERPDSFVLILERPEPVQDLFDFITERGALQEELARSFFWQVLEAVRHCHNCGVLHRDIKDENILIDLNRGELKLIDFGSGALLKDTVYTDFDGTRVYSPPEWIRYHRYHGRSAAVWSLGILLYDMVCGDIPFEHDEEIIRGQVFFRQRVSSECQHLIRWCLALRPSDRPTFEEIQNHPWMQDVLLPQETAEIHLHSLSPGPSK

Regarding `COc1ncc2cc1NS(=O)(=O)c1cccc(c1)C(=O)NCc1cncc(c1)-c1ccnc3ccc-2cc13` [compound 1], the half-maximal inhibitory concentration (IC50) in assay [1] (setting [4]) is less than 100 nM; in assay [1] (setting [5]), 2 nM; in assay [2] (setting [6]) it was less than 100 nM; in assay [2] (setting [7]) it was 64 nM; in assay [3] (setting [8]), more than 1000 nM.
As for `O=C1NCc2cncc(c2)-c2ccnc3ccc(cc23)-c2cnc(O)c(c2)NS(=O)(=O)c2cccc1c2` [compound 2], the IC50 in assay [1] (setting [4]) is 100 to 1000 nM; in assay [2] (setting [6]) it was more than 1000 nM; in assay [3] (setting [8]), more than 1000 nM.
Regarding `COc1ncc2cc1NS(=O)(=O)c1cccc(c1)C(=O)NCc1ccc(F)c(c1)-c1ccnc3ccc-2cc13` [compound 4], the concentration for half-maximal inhibition (IC50) was less than 100 nM in assay [1] (setting [4]), 3 nM in assay [1] (setting [5]), 100 to 1000 nM in assay [2] (setting [6]) and more than 1000 nM in assay [3] (setting [8]).
In the same order, the values of `COc1ncc2cc1NS(=O)(=O)c1cccc(c1)C(=O)NCc1cccc(c1F)-c1ccnc3ccc-2cc13` [compound 5] are less than 100 nM, 23 nM, 100 to 1000 nM and more than 1000 nM.
Turning to `COc1ncc2cc1NS(=O)(=O)c1cccc(c1)C(=O)NCC1CCN(CC1)c1ccnc3ccc-2cc13` [compound 6], the IC50 in assay [1] (setting [4]) is less than 100 nM; in assay [1] (setting [5]), 11 nM; in assay [2] (setting [6]), less than 100 nM; in assay [2] (setting [7]), 72 nM; in assay [3] (setting [8]), more than 1000 nM.
Consider `COc1ncc2cc1NS(=O)(=O)c1cccc(c1)C(=O)NCCCCNc1ccnc3ccc-2cc13` [compound 7], for which the IC50 in assay [1] (setting [4]), in assay [2] (setting [6]) and in assay [3] (setting [8]) was more than 1000 nM in each case.
In the case of `COc1ncc2cc1NS(=O)(=O)c1cccc(c1)C(=O)NCc1cncc(c1)-c1cnc3sc-2nn13` [compound 8], the 50% inhibitory concentration (IC50) is less than 100 nM in assay [1] (setting [4]), 7 nM in assay [1] (setting [5]), more than 1000 nM in assay [2] (setting [6]) and more than 1000 nM in assay [3] (setting [8]).
In the case of `O=C1NCc2cncc(c2)-c2cnc3sc(nn23)-c2cnc(O)c(c2)NS(=O)(=O)c2cccc1c2` [compound 9], the results for the half-maximal inhibitory concentration (IC50) in assay [1] (setting [4]), in assay [2] (setting [6]) and in assay [3] (setting [8]) were 100 to 1000 nM, more than 1000 nM and 100 to 1000 nM, respectively.
In the case of `COc1ncc2cc1NS(=O)(=O)c1cccc(c1)C(=O)NCc1cncc(c1)-c1cnn3ccc-2nc13` [compound 11], the IC50 in assay [1] (setting [4]) is less than 100 nM; in assay [1] (setting [5]) it was 0.4 nM; in assay [2] (setting [6]) it was less than 100 nM; in assay [2] (setting [7]) it was 4 nM; in assay [3] (setting [8]) it was more than 1000 nM.
For the compound `COc1ncc2cc1NS(=O)(=O)c1cccc(c1)C(=O)NCc1cncc(c1)-c1cnc3ccc-2nn13` [compound 12], the half-maximal inhibitory concentration (IC50) in assay [1] (setting [4]) is less than 100 nM; in assay [1] (setting [5]), 0.4 nM; in assay [2] (setting [6]), less than 100 nM; in assay [2] (setting [7]) it was 5 nM; in assay [3] (setting [8]), more than 1000 nM.
Take `COc1ncc2cc1NS(=O)(=O)c1cccc(c1)C(=O)NCc1cccc(c1)-c1cnc3ccc-2nn13` [compound 13]: the IC50 was less than 100 nM in assay [1] (setting [4]); 0.4 nM in assay [1] (setting [5]); less than 100 nM in assay [2] (setting [6]); 10 nM in assay [2] (setting [7]); more than 1000 nM in assay [3] (setting [8]).
For `COc1ncc2cc1NS(=O)(=O)c1cccc(c1)C(=O)NCc1cc(ccn1)-c1ccnc3ccc-2cc13` [compound 15], the IC50 in assay [1] (setting [4]) is less than 100 nM; in assay [1] (setting [5]), 20 nM; in assay [2] (setting [6]) it was 100 to 1000 nM; in assay [3] (setting [8]), more than 1000 nM.
`COc1ncc2cc1NS(=O)(=O)c1cccc(c1)C(=O)NCc1cccc(c1)-c1cnc3sc-2nn13` [compound 17]: the IC50 was less than 100 nM in assay [1] (setting [4]), 9 nM in assay [1] (setting [5]), 100 to 1000 nM in assay [2] (setting [6]) and more than 1000 nM in assay [3] (setting [8]).
On to `COc1ncc2cc1NS(=O)(=O)c1cccc(c1)C(=O)NCCn1cc(cn1)-c1cnc3ccc-2nn13` [compound 18], for which the half-inhibitory concentration (IC50) in assay [1] (setting [4]) is less than 100 nM; in assay [1] (setting [5]), 5 nM; in assay [2] (setting [6]), less than 100 nM; in assay [2] (setting [7]), 67 nM; in assay [3] (setting [8]) it was more than 1000 nM.
As for `COc1ncc2cc1NS(=O)(=O)c1cccc(c1)C(=O)NCCn1cc(cn1)-c1ccnc3ccc-2cc13` [compound 19], the IC50 in assay [1] (setting [4]) was less than 100 nM; in assay [1] (setting [5]), 4 nM; in assay [2] (setting [6]) it was less than 100 nM; in assay [2] (setting [7]), 21 nM; in assay [3] (setting [8]) it was more than 1000 nM.
Consider `COc1ncc2cc1NS(=O)(=O)c1cccc(c1)C(=O)NCc1cncc(c1)-c1c[nH]c3ncc-2cc13` [compound 20], for which the half-inhibitory concentration (IC50) in assay [1] (setting [4]) was less than 100 nM; in assay [1] (setting [5]) it was 80 nM; in assay [2] (setting [6]), 100 to 1000 nM; in assay [3] (setting [8]), more than 1000 nM.
On to `COc1ncc2cc1NS(=O)(=O)c1cccc(c1)C(=O)NCc1cncc(c1)-c1ncnc3sc-2cc13` [compound 21], for which the IC50 in assay [1] (setting [4]) is less than 100 nM; in assay [1] (setting [5]) it was 85 nM; in assay [2] (setting [6]) it was more than 1000 nM; in assay [3] (setting [8]), 100 to 1000 nM.
Consider `COc1ncc2cc1NS(=O)(=O)c1cccc(c1)C(=O)NCCN1CC=C(CC1)c1cnc3ccc-2nn13` [compound 23], for which the half-inhibitory concentration (IC50) is less than 100 nM in assay [1] (setting [4]); 5 nM in assay [1] (setting [5]); less than 100 nM in assay [2] (setting [6]); 22 nM in assay [2] (setting [7]); more than 1000 nM in assay [3] (setting [8]).
Turning to `COc1ncc2cc1NS(=O)(=O)c1cccc(c1)C(=O)N(C)CC1CCN(CC1)c1ccnc3ccc-2cc13` [compound 24], the IC50 was less than 100 nM in assay [1] (setting [4]); 3 nM in assay [1] (setting [5]); less than 100 nM in assay [2] (setting [6]); 4 nM in assay [2] (setting [7]); more than 1000 nM in assay [3] (setting [8]).
As for `COc1ncc2cc1NS(=O)(=O)c1cccc(c1)C(=O)NCCn1cc(cn1)-c1cnn3ccc-2nc13` [compound 26], the IC50 in assay [1] (setting [4]) was less than 100 nM; in assay [1] (setting [5]) it was 4 nM; in assay [2] (setting [6]), less than 100 nM; in assay [2] (setting [7]), 40 nM; in assay [3] (setting [8]), more than 1000 nM.
For `COc1ncc2cc1NS(=O)(=O)c1cccc(c1)C(=O)NCc1cncc(c1)-c1ncnc3c1SC2=C3` [compound 27], the half-inhibitory concentration (IC50) was 100 to 1000 nM in assay [1] (setting [4]), more than 1000 nM in assay [2] (setting [6]), less than 100 nM in assay [3] (setting [8]) and 40 nM in assay [3] (read-out: PIM-1 actual IC50 (in parentheses)).
As for `COc1ncc2cc1NS(=O)(=O)c1cccc(c1)C(=O)NCc1cccc(c1)-c1ncnc3c1SC2=C3` [compound 28], the 50% inhibitory concentration (IC50) in assay [1] (setting [4]) is 100 to 1000 nM; in assay [2] (setting [6]), more than 1000 nM; in assay [3] (setting [8]), 100 to 1000 nM.
As to `COc1ncc2cc1NS(=O)(=O)c1cc(c(F)cc1F)C(=O)NCc1cccc(c1)-c1ccnc3ccc-2cc13` [compound 29], the 50% inhibitory concentration (IC50) was less than 100 nM in assay [1] (setting [4]), 6 nM in assay [1] (setting [5]), 100 to 1000 nM in assay [2] (setting [6]) and more than 1000 nM in assay [3] (setting [8]).
Turning to `COc1ncc2cc1NS(=O)(=O)c1cccc(c1)C(=O)NCc1cc(cs1)-c1ncnc3c1SC2=C3` [compound 74], the concentration for half-maximal inhibition (IC50) in assay [1] (setting [4]) was more than 1000 nM; in assay [3] (setting [8]) it was 100 to 1000 nM.
For `COc1ncc2cc1NS(=O)(=O)c1cccc(c1)C(=O)N[C@H]1CCCN(C1)c1ncnc3c1SC2=C3` [compound 75], in that order: more than 1000 nM and more than 1000 nM.
For `COc1ncc2cc1NS(=O)(=O)c1cccc(c1)C(=O)N[C@@H]1CCCN(C1)c1ncnc3c1SC2=C3` [compound 76], the values for the IC50 in assay [1] (setting [4]) and in assay [3] (setting [8]) were more than 1000 nM and 100 to 1000 nM, respectively.
As for `COc1ncc2cc1NS(=O)(=O)c1cccc(c1)C(=O)NCc1cc(ccn1)-c1cnc3sc-2nn13` [compound 96], the IC50 is 8.8 nM in assay [1] (read-out: PI3K alpha IC50 (in parentheses)), less than 100 nM in assay [1] (read-out: PI3K alpha activity (semi-quantitative IC50)) and 100 to 1000 nM in assay [2] (read-out: mTOR activity (semi-quantitative IC50)).

Source of the values: patent US9808466B2, “Macrocyclic compounds as protein kinase inhibitors” (Fundación Centro Nacional de Investigaciones Oncologicas …, priority 2011, dated 2017).
